Source: the supplement of paper PMC8882468

Tested on: HCI-019 (organoid from a triple-negative breast cancer xenograft)
Assay: CTG-3D luminescence at 96 h relative to day-0 seeding control (ratio to day 0); higher = more growth / less cytotoxicity; PDxO 3D drug screen, 96 h, CTG-3D normalised to day-0 seeding control.
[1] = 0.00025 µM, days in culture: 110
[2] = 0.00025 µM, days in culture: 131
[3] = 0.00025 µM, days in culture: 152

SMILES	CTG-3D luminescence at 96 h (12.5 pM, days in culture: 110)	CTG-3D luminescence at 96 h (12.5 pM, days in culture: 131)	CTG-3D luminescence at 96 h (12.5 pM, days in culture: 152)	CTG-3D luminescence at 96 h [1]	CTG-3D luminescence at 96 h [2]	CTG-3D luminescence at 96 h [3]	CTG-3D luminescence at 96 h (0.005 µM, days in culture: 110)	CTG-3D luminescence at 96 h (0.005 µM, days in culture: 131)	CTG-3D luminescence at 96 h (0.005 µM, days in culture: 152)	CTG-3D luminescence at 96 h (0.1 µM, days in culture: 110)	CTG-3D luminescence at 96 h (0.1 µM, days in culture: 131)	CTG-3D luminescence at 96 h (0.1 µM, days in culture: 152)	CTG-3D luminescence at 96 h (1 µM, days in culture: 110)	CTG-3D luminescence at 96 h (1 µM, days in culture: 131)	CTG-3D luminescence at 96 h (1 µM, days in culture: 152)	CTG-3D luminescence at 96 h (10 µM, days in culture: 110)	CTG-3D luminescence at 96 h (10 µM, days in culture: 131)	CTG-3D luminescence at 96 h (10 µM, days in culture: 152)	CTG-3D luminescence at 96 h (100 µM, days in culture: 110)	CTG-3D luminescence at 96 h (100 µM, days in culture: 131)	CTG-3D luminescence at 96 h (100 µM, days in culture: 152)	CTG-3D luminescence at 96 h (625 fM, days in culture: 110)	CTG-3D luminescence at 96 h (625 fM, days in culture: 131)	CTG-3D luminescence at 96 h (625 fM, days in culture: 152)
CS(=O)(=O)c1ccc(C(=O)Nc2ccc(Cl)c(-c3ccccn3)c2)c(Cl)c1 [vismodegib]	1.59	2.17	3.1	1.68	2.54	2.87	1.23	3.59	2.59	2.46	3.93	1.83	1.99	2.82	2.08	2.18	2.53	1.82	1.03	1.56	0.857	2.06	3.4	1.86
C[C@H](NC(=O)CCC(F)(F)F)C(=O)N[C@@H]1C(=O)N(CCO)c2ncccc2-c2ccccc21 [crenigacestat]	1.5	2.19	3.73	1.45	3.56	3.39	1.75	1.97	2.6	2.18	2.86	2.64	1.25	2.87	1.96	2.5	2.81	2.12	2.44	3.41	2	2.28	3.74	2.48
O=C(/C=C/c1cccnc1)NCCCCC1CCN(C(=O)c2ccccc2)CC1 [FK866]	2.11	1.91	1.88	0.4	1.42	1.08	0.0804	0.669	0.557	0.0554	0.542	0.476	0.0484	0.448	0.267	0.0475	0.436	0.142	0.042	0.137	0.0796	2.64	3.64	1.93
Nc1ccn([C@@H]2O[C@H](CO)[C@@H](O)C2(F)F)c(=O)n1 [gemcitabine]	1.7	2.42	2.8	1.3	3.53	4.1	0.347	0.976	0.623	0.296	0.427	0.432	0.241	0.344	0.375	0.237	0.344	0.521	0.181	0.213	0.424	2.3	3.6	2.77
NC(=O)c1cccc2cn(-c3ccc([C@@H]4CCCNC4)cc3)nc12 [niraparib]	1.64	2.29	2.88	1.35	3.06	2.16	1.18	2.98	1.69	1.2	2.4	1.52	0.642	0.89	0.878	1.1	1.3	1.16	0.00205	0.00628	0.00267	2.72	3.35	2.35
O=C(O)C1(C(=O)O)CCC1.[NH2-].[NH2-].[Pt+2] [carboplatin]	1.39	2.21	2.94	1.76	3.56	2.48	1.53	2.77	2.23	2.63	2.39	1.4	1.29	2.12	1.99	1.16	1.23	1.4	0.26	0.234	0.291	1.97	3.26	1.64
Cc1cc(Nc2ncnc3ccc(NC4=NC(C)(C)CO4)cc23)ccc1Oc1ccn2ncnc2c1 [tucatinib]	2.14	2.25	3.48	1.65	3.22	3.89	1.28	3.6	3.04	1.81	3.65	1.67	1.13	2.9	1.99	2.33	3.09	2.26	0.029	0.0325	0.0487	2.47	4.09	2
C/C=C1\NC(=O)[C@H]2CSSCC/C=C/[C@H](CC(=O)N[C@H](C(C)C)C(=O)N2)OC(=O)[C@H](C(C)C)NC1=O [romidepsin]	1.6	2.29	1.95	1.12	2.76	1.43	0.598	1.06	1.55	0.376	0.975	0.685	0.0772	0.441	0.489	0.000883	0.00479	0.00416	-0.00824	-0.00826	-0.00783	2.26	3.05	1.53
COc1cccc2c1C(=O)c1c(O)c3c(c(O)c1C2=O)C[C@@](O)(C(=O)CO)C[C@@H]3O[C@H]1C[C@H](N)[C@H](O)[C@H](C)O1 [doxorubicin]	1.69	3.03	3.43	1.56	3.8	3.12	1.49	2.31	2.32	1.03	1.47	1.57	0.296	0.314	0.409	0.00454	0.00725	0.00363	-0.00853	-0.0127	-0.00918	1.91	4.1	2.03
O=C(c1ccc(F)c(F)c1Nc1ccc(I)cc1F)N1CC(O)([C@@H]2CCCCN2)C1 [cobimetinib]	1.61	2.19	3.36	2.17	3.62	3.14	1.42	3.36	2.66	1.74	3.24	1.88	0.92	1.65	1.11	0.565	1.41	0.848	-0.00268	-0.00394	-1.56e-05	2.27	3.82	2.36
CN(Cc1cnc2nc(N)nc(N)c2n1)c1ccc(C(=O)N[C@@H](CCC(=O)O)C(=O)O)cc1 [methotrexate]	2.05	2.79	2.67	1.69	3.21	2.23	1.69	2.83	2.89	1.92	2.59	2.1	1.17	2.04	2.27	1.54	2.25	2.28	1.35	2.11	2.16	2.13	3.85	2.17
CNC(=O)c1cccc(-c2ccc3c(N4CCOC[C@@H]4C)nc(N4CCOC[C@@H]4C)nc3n2)c1 [vistusertib]	1.84	2.64	2.51	1.95	4.03	2.65	1.82	2.46	3.11	1.67	2.64	1.64	0.591	0.938	0.846	0.882	1.24	0.759	0.492	0.736	0.555	2.38	3.83	2.52
C[C@]12CC[C@@H]3c4ccc(O)cc4C[C@@H](CCCCCCCCC[S+]([O-])CCCC(F)(F)C(F)(F)F)[C@H]3[C@@H]1CC[C@@H]2O (some centres not stated) [fulvestrant]	2.08	2.86	2.85	1.72	3.69	3	1.89	2.72	3.24	2.26	3.98	2.41	1.97	3.13	1.37	2.13	2.98	2.3	1.73	1.94	1.6	1.57	4.13	2.94
